The test system of data set [1] is NK cells. The data set is described as follows: Autophagy staining (CYTO-ID). The following applies: NK cells following ADU-S100 treatment. The format is cell-based, human. The procedure: Autophagy Staining. Autophagy was assessed by vacuole staining to identify autophagolysosomes using the CYTO-ID Autophagy detection kit 2.0 (Enzo ENZ-51031-0050) according to manufacturer's instructions. Briefly, 5×10^5 isolated primary NK cells or TILs were incubated in T-cell growth media (TCGM) with 500 U/mL IL-2, which was refreshed every time the media was changed to ensure proper growth and selection. CLQ from the kit (Enzo 51005-CLQ) was used starting at the recommended initial dose of 10 μM compared with DMSO control. […] The media was collected, and flow cytometry was performed after staining following manufacturer's instructions with CYTO-ID Green Detection Reagent 2.

Data set [2] deals with MPM cell lines. The experiment in a line: CellTiter-Glo viability in MPM cell lines. Particulars: cultured in vitro. In kind it is cell-based, human. The procedure: CellTiter-Glo luminescent cell viability assay. Cell viability was assessed using the CellTiter-Glo Luminescent Cell Viability assay (Promega, G7571) according to manufacturer's instructions. […] All conditions were tested in triplicate and plates were read on a Tecan Infinite Mplex Microplate Reader.
On the technique in general: Cellular ATP, detected with luciferase, serves as a proxy for viable cell number.

With `Nc1ncnc2c1ncn2[C@@H]1O[C@@H]2COP(=O)([S-])O[C@@H]3[C@H](O)[C@@H](COP([O-])(=S)O[C@H]2[C@H]1O)O[C@H]3n1cnc2c(N)ncnc21.[Na+].[Na+]` (some centres unmarked) [ADU-S100], the autophagic flux entry in data set [1] was “elevated”. Also, the “cytotoxicity in MPM cell lines” value in data set [2] was “did not cause cytotoxicity”.
